Assay results as given in PMC5823406, “Vehicle development, pharmacokinetics and toxicity of the anti-invasive agent 4-fluoro-3’,4’,5’-trimethoxychalcone in rodents” (PLoS ONE, 2018).

Tested on: ICR mice
Experiment: Single-dose IP MTD study
Format: in vivo
Details: for Necropsy: gross findings: 24 h post dosing; for Weigt decrease (%): over 24 h
Description: Male ICR mice (20–26 g), were obtained from BioLASCO Taiwan. Animals were kept in conventional cages with wood chip bedding. Space allocation for 3–5 animals was 30 x 19 x 13 cm. All animals were healthy at the start of the trial and maintained in a well-controlled temperature (20–24°C) and humidity (30%-70%) environment with 12 h light/dark cycles. Free access to a standard lab diet [MFG (Oriental Yeast Co., Ltd., Japan)] and autoclaved tap water were granted.
A single PO and IP dose progression test was conducted in which animals were dosed at a minimum of 72- or 24-h intervals, respectively. C16 (vehicle: 10% Solutol HS-15 / 90% PEG 600) was administered by oral gavage at 10 mL/kg to randomly assigned groups of 2 male and 2 female mice, or by IP injection at 5 mL/kg to randomly assigned groups of 5 male mice. Animals received an initial dose of 10 mg/kg. If 50% of the animals survived for 72 h (PO) or 30 min (IP), the dose for the next cohort was increased. If one or more animals died, the dose for the next cohort was decreased. The next dose level was determined by the decision scheme in Fig 2.
Body weights were recorded before dosing and at the 72- (PO) or 24-h (IP) time point. Gross necropsy was performed in all animals without tissue collection.
C16 was administered IP at an initial dose of 10 mg/kg to a group of 5 ICR derived male mice weighing 22±2 g. The animals were then observed for presence of acute toxic symptoms and autonomic effects during the first 30 min and after 1 h, 2 h, 6 h and 24 h (Table S-Table U). The next dose level was determined based on whether more than 50% animals died within 30 min after dosing. Gross necropsy was performed in all animals without tissue collection .
Table S. Body weights, evolution over 24 h, IP MTD study.
Compound Dose Animal Body weight (g)
Table T. Food consumption over 24 h, IP MTD study.
Compound Dose Animal Food consumption (g)

## COc1cc(C(=O)/C=C/c2ccc(F)cc2)cc(OC)c1OC [C16, 4-fluoro-3’,4’,5’-trimethoxychalcone]
IP 10 mg/kg
  Deaths: 0/5
  Necropsy: gross findings: none
  Weigt decrease (%): 2.4%
IP 10 mg/kg, first 30 min
  Autonomic: Hunch back: 3/5
  Autonomic: Low body temperature: 0/5
  Behavioral: Irritability: vocalization: 0/5
  Behavioral: Pinna: 0/5
  Neurologic: Low limb post: 0/5
  Neurologic: Tremor: twitches: 2/5
IP 30 mg/kg
  Deaths: 0/5
  Necropsy: gross findings: none
  Weigt decrease (%): 4.8%
IP 30 mg/kg, first 30 min
  Autonomic: Hunch back: 5/5
  Autonomic: Low body temperature: 0/5
  Neurologic: Tremor: twitches: 2/5
IP 50 mg/kg
  Deaths: 0/5
  Necropsy: gross findings: none
  Weigt decrease (%): 8.7%
IP 50 mg/kg, first 30 min
  Autonomic: Hunch back: 5/5
  Neurologic: Tremor: twitches: 3/5
male, ICR, mouse, in vivo, ip, 24 h
  tolerated dose, single-dose IP administration: up to 50 mg/kg
